From ChEMBL document CHEMBL3817740, “Recent developments in SAR visualization” (Medchemcomm, 2016)

biological target: Histamine H4 receptor (Homo sapiens, UniProt Q9H3N8); experiment: Inhibition of histamine H4 receptor (unknown origin)
Sequence (Q9H3N8 whole entry): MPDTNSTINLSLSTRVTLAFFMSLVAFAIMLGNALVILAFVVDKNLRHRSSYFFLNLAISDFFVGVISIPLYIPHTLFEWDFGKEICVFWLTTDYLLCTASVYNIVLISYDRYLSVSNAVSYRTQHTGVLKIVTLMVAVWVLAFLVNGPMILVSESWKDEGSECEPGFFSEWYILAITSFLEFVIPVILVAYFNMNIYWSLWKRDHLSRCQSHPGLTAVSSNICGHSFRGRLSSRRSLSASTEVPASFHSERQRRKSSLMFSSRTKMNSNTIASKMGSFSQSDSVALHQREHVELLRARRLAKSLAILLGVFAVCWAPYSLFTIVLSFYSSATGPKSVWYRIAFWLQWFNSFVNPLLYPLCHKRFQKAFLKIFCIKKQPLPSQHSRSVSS

Compound | Ki [nM]
CN[C@H]1CCN(c2nc(N)nc3c2CCC3)C1 | 158
CN[C@H]1CCN(c2nc(N)nc(C)c2C)C1 | 355
CN[C@H]1CCN(c2nc(N)nc3c2oc2ccc(C(C)(F)F)cc23)C1 | 1
CN[C@H]1CCN(c2nc(N)nc3c2oc2ccccc23)C1 | 3.39
